Calls of active or inactive are those of the source.
Legend:
[1] = target: T1, DNA dC->dU-editing enzyme APOBEC-3G (Homo sapiens, UniProt Q9HC16); assay type: functional
[2] = target: T2, DNA dC->dU-editing enzyme APOBEC-3A (Homo sapiens, UniProt P31941); assay: Dose Response confirmation of small molecule APOBEC3A DNA Deaminase Inhibitors via a fluorescence-based single-stranded DNA deaminase assay. [Related pubchem assays (depositor defined):AID493011, AID493024]; assay type: functional
[3] = microbe, parasite or virus in culture; assay type: functional; conditions: Mycobacterium tuberculosis
Nonstructural protein 1 = Nonstructural protein 1 (Influenza A virus, UniProt Q194T2); assay type: functional, Influenza A virus (A/California/07/2009(H1N1))
cells [4] = assay type: functional, cell-based
[5] = Vero E6 cell cytotoxicity, dose response, cytotoxicity control for non-replicating M. tuberculosis project, secondary assay (AID 492998); assay type: functional, VeroE6; conditions: Vero C1008
cells [6] = assay type: functional
[7] = HepG2 cell cytotoxicity, dose response, cytotoxicity control for non-replicating M. tuberculosis project (AID 489018); assay type: functional; conditions: Mycobacterium tuberculosis
[8] = THP-1 cell cytotoxicity, dose response, cytotoxicity control for non-replicating M. tuberculosis project (AID 489025); assay type: functional
cells [9] = assay type: functional, cell-based; remark: listed apart in the source
Bcl-2-related protein A1 = Bcl-2-related protein A1 (Mus musculus, UniProt Q07440); assay type: functional;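 note: confirmatory dose–response counterscreen on Bfl-1, used to check hits from a UBC13 polyubiquitin inhibitor campaign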
[10] = target: T3, Ubiquitin-conjugating enzyme E2 N (Homo sapiens, UniProt P61088); assay type: functional
T3 sequence (P61088 whole entry): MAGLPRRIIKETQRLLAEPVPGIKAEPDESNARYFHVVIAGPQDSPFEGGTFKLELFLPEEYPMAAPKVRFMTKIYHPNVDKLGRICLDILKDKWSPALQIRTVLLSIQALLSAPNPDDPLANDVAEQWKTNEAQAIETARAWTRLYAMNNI

[11] = target: T3, Ubiquitin-conjugating enzyme E2 N; assay type: functional; remark: listed apart in the source
Hexokinase HKDC1 = target: T4, Hexokinase HKDC1 (Homo sapiens, UniProt Q2TB90); assay: inhibition of HKDC1 glucose phosphorylation – biochemical, W721R variant, dose response (AID 504729); assay type: functional
T4 sequence (Q2TB90 whole entry): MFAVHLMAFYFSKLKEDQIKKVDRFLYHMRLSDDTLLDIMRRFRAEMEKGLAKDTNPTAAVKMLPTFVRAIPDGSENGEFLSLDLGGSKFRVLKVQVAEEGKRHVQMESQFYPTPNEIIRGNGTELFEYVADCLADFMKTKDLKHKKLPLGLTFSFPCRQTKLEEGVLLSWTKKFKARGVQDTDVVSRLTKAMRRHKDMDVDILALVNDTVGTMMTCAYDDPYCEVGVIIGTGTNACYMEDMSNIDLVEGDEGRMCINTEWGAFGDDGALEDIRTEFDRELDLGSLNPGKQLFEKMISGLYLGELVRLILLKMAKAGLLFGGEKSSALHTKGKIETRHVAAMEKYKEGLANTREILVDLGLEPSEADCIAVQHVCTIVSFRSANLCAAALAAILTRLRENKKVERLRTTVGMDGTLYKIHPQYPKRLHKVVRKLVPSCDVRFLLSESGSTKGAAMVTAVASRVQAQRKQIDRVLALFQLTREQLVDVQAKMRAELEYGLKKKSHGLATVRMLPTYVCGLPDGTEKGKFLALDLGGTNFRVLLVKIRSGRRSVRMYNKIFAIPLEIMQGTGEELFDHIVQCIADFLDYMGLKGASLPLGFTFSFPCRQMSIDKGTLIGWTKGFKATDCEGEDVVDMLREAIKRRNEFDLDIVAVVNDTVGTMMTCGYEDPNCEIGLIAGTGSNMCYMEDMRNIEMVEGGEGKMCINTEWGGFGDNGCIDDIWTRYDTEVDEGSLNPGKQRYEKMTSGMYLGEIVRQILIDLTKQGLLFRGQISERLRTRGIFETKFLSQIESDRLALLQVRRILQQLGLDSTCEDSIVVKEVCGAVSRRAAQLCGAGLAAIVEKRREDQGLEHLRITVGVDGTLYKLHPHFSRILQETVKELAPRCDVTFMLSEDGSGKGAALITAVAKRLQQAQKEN

Hexokinase-1 = target: T5, Hexokinase-1 (Homo sapiens, UniProt P19367); assay: HK1 enzyme activation by HKDC1 hits – biochemical, selectivity assay for HKDC1 activator project, dose response (AID 504762); assay type: functional
T5 sequence (P19367 whole entry): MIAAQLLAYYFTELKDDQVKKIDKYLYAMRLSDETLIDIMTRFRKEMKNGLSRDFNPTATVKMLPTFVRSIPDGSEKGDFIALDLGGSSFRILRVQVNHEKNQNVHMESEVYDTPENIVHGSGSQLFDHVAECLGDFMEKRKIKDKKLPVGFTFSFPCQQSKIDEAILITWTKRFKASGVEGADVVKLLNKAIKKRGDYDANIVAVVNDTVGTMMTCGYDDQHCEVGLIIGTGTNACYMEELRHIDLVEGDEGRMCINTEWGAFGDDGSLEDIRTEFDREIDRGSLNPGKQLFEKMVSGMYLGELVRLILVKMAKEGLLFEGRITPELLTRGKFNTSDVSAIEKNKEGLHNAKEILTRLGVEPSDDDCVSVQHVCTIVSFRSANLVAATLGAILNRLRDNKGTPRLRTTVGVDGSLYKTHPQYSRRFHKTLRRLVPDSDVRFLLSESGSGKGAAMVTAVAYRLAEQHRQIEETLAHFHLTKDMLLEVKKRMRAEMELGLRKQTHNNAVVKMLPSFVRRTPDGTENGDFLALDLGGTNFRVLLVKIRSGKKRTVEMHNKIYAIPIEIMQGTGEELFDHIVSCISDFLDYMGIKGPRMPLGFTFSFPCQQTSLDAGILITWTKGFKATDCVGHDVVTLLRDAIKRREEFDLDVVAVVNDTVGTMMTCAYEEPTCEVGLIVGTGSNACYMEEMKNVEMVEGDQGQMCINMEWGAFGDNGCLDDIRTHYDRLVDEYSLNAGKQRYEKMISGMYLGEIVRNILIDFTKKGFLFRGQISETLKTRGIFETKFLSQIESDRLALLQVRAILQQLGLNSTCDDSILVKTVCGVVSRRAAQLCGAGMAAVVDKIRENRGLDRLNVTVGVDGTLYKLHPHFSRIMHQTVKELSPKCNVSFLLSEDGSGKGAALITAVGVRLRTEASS

[12] = target: T1, DNA dC->dU-editing enzyme APOBEC-3G; assay: Dose Response confirmation of small molecule APOBEC3G DNA Deaminase Inhibitors via a fluorescence-based single-stranded DNA deaminase assay. [Related pubchem assays (depositor defined):AID493012, AID493028]; assay type: functional
[13] = target: T2, DNA dC->dU-editing enzyme APOBEC-3A; assay: A3A deaminase inhibition for selectivity – biochemical, dose response (AID 504722); assay type: functional
[14] = target: Eukaryotic translation initiation factor 4E (Mus musculus, UniProt P63073); assay: blockers of eIF4G binding by eIF4E – biochemical, TR-FRET, dose response (AID 855); assay type: functional;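 note: potency for disrupting eIF4E binding to eIF4GI seen as loss of FRET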
[15] = target: T6, Voltage-gated N-type calcium channel alpha-1B subunit/Amyloid beta A4 precursor protein-binding family A member 1 (Homo sapiens, UniProt Q00975+Q02410); assay type: protein assay
Large T antigen = Large T antigen (Simian virus 40, UniProt P03070); assay type: functional, Betapolyomavirus macacae;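 note: Confirmatory-stage PubChem screen for compounds that inhibit SV40 T antigen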
[16] = target: T6, Voltage-gated N-type calcium channel alpha-1B subunit/Amyloid beta A4 precursor protein-binding family A member 1; assay type: protein assay; remark: listed apart in the source
[17] = target: T7, Runt-related transcription factor 1/Core-binding factor subunit beta (Homo sapiens, UniProt Q01196+Q13951); assay: disruptors of Runt domain/CBFb-SMMHC interaction – biochemical, FRET, Cerulean-Runt, Venus-CBFb-SMMHC, uHTS, […] (AID 1434); assay type: protein assay
[18] = target: T8, Corticotropin-releasing factor receptor 2/Corticotropin-releasing factor-binding protein (Homo sapiens, UniProt P24387+Q13324); assay: activators of CRF receptor 2 with binding protein – uHTS hits, confirmation (AID 602473); assay type: functional; conditions: read-out: EC50_Mean
T8 sequence (Q13324 whole entry): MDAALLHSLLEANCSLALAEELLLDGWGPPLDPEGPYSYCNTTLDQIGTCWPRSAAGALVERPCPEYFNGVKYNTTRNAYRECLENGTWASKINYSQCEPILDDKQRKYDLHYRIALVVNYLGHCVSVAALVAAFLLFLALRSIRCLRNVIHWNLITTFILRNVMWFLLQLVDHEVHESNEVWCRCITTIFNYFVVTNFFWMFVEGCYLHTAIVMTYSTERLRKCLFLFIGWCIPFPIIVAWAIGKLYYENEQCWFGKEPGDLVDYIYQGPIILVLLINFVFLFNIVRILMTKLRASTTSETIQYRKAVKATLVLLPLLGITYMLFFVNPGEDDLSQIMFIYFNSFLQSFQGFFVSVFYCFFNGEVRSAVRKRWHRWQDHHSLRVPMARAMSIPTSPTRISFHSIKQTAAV
T8 sequence (P24387 whole entry): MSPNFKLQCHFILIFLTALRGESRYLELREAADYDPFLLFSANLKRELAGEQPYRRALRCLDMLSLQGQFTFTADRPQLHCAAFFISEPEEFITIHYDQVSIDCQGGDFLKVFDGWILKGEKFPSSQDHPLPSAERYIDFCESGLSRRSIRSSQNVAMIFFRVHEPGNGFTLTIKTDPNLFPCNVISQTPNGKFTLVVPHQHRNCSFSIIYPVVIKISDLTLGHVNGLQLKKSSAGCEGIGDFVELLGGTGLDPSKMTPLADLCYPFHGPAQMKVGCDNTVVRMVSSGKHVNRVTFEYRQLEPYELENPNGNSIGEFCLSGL

Estrogen receptor beta = Estrogen receptor beta (Homo sapiens, UniProt Q92731);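 note: recombinant ER-beta bound to coactivator SRC1 peptide in presence of estradiol agonist; inhibitors block coactivator peptide binding and lower the FRET signal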
[19] = target: T7, Runt-related transcription factor 1/Core-binding factor subunit beta; assay: Runt domain/CBFb-SMMHC interaction disruptors – biochemical, TR-FRET (AID 1438); assay type: protein assay
[20] = target: T9, Rac GTPase-activating protein 1 (Homo sapiens, UniProt Q9H0H5); assay: blockers of MgcRacGAP-driven Rac1 GTP hydrolysis – biochemical, ADP Hunter fluorescence, primary and confirmatory, confirmation (AID 624330); assay type: functional
T9 sequence (Q9H0H5 whole entry): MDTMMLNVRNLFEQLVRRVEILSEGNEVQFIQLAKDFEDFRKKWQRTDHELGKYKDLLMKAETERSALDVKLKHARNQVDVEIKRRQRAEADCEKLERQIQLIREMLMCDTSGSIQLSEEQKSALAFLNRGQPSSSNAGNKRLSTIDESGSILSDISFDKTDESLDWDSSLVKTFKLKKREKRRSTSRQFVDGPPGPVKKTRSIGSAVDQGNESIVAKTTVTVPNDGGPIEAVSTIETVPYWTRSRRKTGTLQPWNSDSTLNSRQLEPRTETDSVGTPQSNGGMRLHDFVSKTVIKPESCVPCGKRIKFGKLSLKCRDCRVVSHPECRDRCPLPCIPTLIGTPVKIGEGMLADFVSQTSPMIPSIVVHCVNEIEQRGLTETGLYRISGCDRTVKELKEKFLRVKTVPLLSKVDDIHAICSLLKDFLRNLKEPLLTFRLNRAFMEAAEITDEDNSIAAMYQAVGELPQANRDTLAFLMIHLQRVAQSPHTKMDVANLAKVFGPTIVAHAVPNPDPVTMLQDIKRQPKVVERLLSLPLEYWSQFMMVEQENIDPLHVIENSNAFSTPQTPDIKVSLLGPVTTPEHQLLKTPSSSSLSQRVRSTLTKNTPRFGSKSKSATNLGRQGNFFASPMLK

[21] = target: Eukaryotic translation initiation factor 4H (Homo sapiens, UniProt Q15056); assay: eIF4H binding inhibition – biochemical, uHTS, fluorescence polarization, translation initiation inhibitor project, primary screen (AID 2012)
[22] = target: Polyadenylate-binding protein 1 (Homo sapiens, UniProt P11940); assay: blockers of PABP interaction with poly(A) – biochemical, fluorescence polarization, […] (AID 2014)

T1 sequence (Q9HC16 whole entry): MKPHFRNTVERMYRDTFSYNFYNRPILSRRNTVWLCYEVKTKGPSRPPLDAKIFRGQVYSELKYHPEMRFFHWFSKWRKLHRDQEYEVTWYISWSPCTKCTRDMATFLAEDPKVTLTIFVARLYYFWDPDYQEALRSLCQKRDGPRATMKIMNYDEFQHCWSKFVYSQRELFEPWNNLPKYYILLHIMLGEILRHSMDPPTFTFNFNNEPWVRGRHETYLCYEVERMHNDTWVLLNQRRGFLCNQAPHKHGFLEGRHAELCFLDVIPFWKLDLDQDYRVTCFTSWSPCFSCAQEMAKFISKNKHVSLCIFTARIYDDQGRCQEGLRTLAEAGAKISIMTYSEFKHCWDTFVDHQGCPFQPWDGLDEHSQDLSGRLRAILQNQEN
T2 sequence (P31941 whole entry): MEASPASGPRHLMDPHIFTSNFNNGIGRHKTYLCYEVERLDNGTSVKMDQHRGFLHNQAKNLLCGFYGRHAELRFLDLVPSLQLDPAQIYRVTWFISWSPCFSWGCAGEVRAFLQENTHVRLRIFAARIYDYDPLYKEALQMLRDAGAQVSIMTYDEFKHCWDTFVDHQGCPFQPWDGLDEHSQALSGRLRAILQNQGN
T6 sequence (Q00975 whole entry): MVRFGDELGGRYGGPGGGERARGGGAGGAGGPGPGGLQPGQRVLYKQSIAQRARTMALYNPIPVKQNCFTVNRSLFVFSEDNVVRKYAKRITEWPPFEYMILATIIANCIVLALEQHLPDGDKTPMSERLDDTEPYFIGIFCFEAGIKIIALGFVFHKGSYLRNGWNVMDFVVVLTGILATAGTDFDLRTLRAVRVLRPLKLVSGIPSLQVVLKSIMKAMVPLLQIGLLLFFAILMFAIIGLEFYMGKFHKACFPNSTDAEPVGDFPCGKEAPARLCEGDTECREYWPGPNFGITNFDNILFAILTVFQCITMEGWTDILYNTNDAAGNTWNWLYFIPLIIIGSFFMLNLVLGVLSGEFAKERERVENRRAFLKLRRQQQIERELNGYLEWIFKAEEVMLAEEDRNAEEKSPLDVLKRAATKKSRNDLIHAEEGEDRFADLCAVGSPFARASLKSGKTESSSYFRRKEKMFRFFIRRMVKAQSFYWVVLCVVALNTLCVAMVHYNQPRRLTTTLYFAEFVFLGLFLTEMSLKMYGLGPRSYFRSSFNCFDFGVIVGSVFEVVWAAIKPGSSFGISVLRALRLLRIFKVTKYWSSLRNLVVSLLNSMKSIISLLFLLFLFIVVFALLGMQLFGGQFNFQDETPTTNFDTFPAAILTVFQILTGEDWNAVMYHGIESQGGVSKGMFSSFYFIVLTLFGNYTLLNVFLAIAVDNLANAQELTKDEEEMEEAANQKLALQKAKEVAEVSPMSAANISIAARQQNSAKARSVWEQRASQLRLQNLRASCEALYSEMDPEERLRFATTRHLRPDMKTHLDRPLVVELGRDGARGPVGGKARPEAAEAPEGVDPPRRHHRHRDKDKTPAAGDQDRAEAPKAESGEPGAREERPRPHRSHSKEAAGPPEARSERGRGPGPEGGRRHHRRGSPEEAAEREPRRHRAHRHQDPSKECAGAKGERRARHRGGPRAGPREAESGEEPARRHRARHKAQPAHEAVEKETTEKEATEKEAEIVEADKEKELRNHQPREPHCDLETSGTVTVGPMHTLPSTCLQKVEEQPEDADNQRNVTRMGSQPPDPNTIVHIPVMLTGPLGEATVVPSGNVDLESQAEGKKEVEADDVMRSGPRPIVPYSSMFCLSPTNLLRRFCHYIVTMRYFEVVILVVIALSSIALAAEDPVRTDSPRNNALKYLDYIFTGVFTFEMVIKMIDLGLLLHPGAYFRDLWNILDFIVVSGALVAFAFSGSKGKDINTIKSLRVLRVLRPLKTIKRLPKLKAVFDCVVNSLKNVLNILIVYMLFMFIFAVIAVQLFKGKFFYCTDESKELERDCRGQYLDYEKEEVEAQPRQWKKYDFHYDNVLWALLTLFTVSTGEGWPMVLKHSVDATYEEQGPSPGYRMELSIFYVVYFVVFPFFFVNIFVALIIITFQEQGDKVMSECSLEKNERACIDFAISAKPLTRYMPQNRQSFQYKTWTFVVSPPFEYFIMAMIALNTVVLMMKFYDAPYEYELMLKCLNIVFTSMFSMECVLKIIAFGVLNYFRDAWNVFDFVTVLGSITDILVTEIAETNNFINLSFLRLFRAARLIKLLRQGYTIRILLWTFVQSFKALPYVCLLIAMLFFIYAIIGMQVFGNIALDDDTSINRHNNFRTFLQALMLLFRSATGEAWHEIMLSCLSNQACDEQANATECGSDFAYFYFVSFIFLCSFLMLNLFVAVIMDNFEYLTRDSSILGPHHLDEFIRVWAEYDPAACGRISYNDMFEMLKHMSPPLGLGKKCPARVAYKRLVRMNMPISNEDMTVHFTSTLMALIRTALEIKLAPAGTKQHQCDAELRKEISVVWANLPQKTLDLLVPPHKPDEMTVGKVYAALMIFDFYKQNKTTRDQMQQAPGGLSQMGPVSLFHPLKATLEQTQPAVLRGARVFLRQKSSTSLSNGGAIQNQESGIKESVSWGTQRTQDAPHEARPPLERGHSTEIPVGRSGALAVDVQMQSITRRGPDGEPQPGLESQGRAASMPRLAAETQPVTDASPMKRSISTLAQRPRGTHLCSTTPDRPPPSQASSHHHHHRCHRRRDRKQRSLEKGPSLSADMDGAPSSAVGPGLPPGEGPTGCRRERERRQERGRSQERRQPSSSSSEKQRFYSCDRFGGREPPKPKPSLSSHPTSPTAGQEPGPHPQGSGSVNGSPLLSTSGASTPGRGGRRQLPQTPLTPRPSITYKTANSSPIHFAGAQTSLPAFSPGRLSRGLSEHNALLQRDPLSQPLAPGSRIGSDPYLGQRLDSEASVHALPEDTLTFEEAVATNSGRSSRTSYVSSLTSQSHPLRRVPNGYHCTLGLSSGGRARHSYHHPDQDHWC
T6 sequence (Q02410 whole entry): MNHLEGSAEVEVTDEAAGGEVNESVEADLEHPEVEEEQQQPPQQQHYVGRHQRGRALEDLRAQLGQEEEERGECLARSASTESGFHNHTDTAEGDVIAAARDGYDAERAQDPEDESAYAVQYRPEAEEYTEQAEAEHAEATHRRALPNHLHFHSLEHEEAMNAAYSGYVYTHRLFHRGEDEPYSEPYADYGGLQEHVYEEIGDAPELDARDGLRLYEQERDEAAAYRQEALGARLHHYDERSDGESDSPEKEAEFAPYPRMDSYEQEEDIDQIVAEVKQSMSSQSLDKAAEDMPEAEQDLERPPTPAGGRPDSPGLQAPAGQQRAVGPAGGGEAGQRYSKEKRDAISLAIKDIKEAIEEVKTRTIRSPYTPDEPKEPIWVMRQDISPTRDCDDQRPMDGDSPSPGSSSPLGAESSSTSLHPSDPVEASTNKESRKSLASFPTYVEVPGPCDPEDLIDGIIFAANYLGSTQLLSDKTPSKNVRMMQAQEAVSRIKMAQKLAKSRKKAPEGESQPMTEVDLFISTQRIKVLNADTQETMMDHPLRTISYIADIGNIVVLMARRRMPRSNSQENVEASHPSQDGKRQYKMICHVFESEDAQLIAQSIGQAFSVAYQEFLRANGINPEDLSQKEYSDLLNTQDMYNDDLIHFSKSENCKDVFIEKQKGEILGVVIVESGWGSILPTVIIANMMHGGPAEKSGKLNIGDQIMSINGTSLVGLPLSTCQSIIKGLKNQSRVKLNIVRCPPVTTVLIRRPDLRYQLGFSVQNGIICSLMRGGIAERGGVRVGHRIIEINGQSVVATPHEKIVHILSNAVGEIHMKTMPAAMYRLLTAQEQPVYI
T7 sequence (Q01196 whole entry, the tested form may be a part): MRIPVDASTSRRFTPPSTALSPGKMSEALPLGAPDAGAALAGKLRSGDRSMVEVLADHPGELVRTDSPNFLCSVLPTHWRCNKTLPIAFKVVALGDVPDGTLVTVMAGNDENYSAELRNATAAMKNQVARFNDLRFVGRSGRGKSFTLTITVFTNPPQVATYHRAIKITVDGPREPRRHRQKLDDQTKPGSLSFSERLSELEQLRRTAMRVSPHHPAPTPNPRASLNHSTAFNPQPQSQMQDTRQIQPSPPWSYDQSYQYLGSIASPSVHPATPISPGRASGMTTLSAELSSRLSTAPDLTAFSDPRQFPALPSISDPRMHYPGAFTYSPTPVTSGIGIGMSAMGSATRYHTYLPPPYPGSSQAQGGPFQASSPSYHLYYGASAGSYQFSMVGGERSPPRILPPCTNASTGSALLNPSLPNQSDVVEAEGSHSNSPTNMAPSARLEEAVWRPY
T7 sequence (Q13951 whole entry, the tested form may be a part): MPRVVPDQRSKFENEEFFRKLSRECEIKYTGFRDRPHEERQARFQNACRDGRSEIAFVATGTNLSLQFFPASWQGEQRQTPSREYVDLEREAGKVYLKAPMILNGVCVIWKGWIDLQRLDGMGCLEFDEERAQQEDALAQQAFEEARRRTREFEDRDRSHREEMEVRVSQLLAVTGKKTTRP
Bcl-2-related protein A1, sequence (Q07440 whole entry): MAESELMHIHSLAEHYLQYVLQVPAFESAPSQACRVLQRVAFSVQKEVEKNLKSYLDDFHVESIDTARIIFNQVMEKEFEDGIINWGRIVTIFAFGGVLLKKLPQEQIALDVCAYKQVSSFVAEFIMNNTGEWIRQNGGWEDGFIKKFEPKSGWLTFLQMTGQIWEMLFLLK
Nonstructural protein 1, sequence (Q194T2 whole entry): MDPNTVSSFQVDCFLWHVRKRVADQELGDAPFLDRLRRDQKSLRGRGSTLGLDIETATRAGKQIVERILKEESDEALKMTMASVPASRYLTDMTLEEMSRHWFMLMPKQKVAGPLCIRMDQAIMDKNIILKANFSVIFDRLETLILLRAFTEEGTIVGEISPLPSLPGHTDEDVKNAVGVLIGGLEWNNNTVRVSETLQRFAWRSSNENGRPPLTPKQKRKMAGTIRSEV
Eukaryotic translation initiation factor 4E, sequence (P63073 whole entry): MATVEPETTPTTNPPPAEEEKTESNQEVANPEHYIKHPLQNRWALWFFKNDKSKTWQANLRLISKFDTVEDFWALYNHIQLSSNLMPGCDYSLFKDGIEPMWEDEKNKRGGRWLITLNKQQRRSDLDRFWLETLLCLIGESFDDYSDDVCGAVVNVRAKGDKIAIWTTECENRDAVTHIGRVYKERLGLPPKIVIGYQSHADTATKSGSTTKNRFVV

Compound: CC[n+]1cccc(-c2nc3ccccc3s2)c1
- IC50 [1]: 3.66 µM (active)
- IC50 [2]: 3.65 µM (active)

Compound: CNc1nc(-c2ccccn2)nnc1-c1ccccc1
- CC50 [3]: 13.3 µM (active)
- IC50 (Nonstructural protein 1): 1.66 µM (active)
- EC50 (cells [4]): 12.8 µM (active)
- CC50 [5]: 19.9 µM (active)
- IC50 (cells [6]): 11.1 µM (active)
- CC50 [7]: > 20 µM (active)
- CC50 [8]: 19.1 µM (active)
- EC50 (cells [9]): > 350 µM (not active)

Compound: COc1cc(/C=N\NC(=O)c2sc(N)nc2C)cc(OC)c1OC
- IC50 (Bcl-2-related protein A1): > 20 µM (inactive)
- IC50 [10]: 0.477 µM (active)
- IC50 [11]: 0.386 µM (active)

Compound: O=C(c1ccccc1)c1nnc(-c2ccccc2)cc1O
- IC50 (Hexokinase HKDC1): > 80 µM (inactive)
- EC50 (Hexokinase-1): > 80 µM (inactive)

Compound: Cc1cc(-c2nnc(S)n2/N=C/C=C/c2ccccc2)[nH]n1
- IC50 [12]: 2.35 µM (active)
- IC50 [13]: > 100 µM (inactive)

Compound: COc1ccc(N2CSC3=C(C#N)C(c4cccs4)CC(=O)N3C2)cc1 (centres undefined)
- IC50 [14]: > 64 µM (inactive)
- IC50 [15]: 8.68 µM (active)
- IC50 [13]: 74.1 µM (active)
- IC50 (Large T antigen): 10.7 µM (active)
- IC50 [16]: > 50 µM (inactive)

Compound: Cc1cccc(S(=O)(=O)c2c(N)n(Cc3ccco3)c3nc4ccccc4nc23)c1
- IC50 [17]: > 100 µM (inactive)
- EC50 [18]: > 53 µM (inactive)
- IC50 (Estrogen receptor beta): > 50 µM (not active)
- IC50 [19]: > 100 µM (inactive)

Compound: C#CCOCCOCCOCCNc1nc(N2CCN(C(=O)[C@H](CCCCN)n3cc([C@@H](N)C(C)CC)nn3)CC2)nc(N2CCN(C(=O)[C@H](CCCCN)n3cc([C@@H](N)CC(C)C)nn3)CC2)n1 (some centres undefined)
- IC50 (Bcl-2-related protein A1): > 20 µM (inactive)
- IC50 [10]: 8.4 µM (active)
- IC50 [11]: 7.14 µM (active)
- IC50 [20]: 114 µM (active)

Compound: COC(=O)C1=C(C)N(Cc2ccccc2)C(NCCCCO)=N[C@H]1CCc1ccccc1
- IC50 [1]: 5.42 µM (active)
- IC50 [2]: 3.51 µM (active)
- IC50 [21]: > 100 µM (inactive)
- IC50 [22]: 18.9 µM (active)
